The target in assay [1] is T1, BuChE from equine serum (eqBuChE) (Equus caballus, UniProt P81908).
T1 construct: The BuChE freeze-dried from equine serum (eqBuChE, Sigma Aldrich); purchased Sigma Aldrich; host or cells: equine serum (natural source)
Put plainly: butyrylcholinesterase inhibition, Ellman spectrometric method. It counts as biochemical. The procedure:
(§1) In the extent that the toxic activity of TCP especially involves its action on cholinesterases, the effect of the compounds used according to the invention, as well as comparative compounds, on two cholinesterases was studied. The concentration values of each compound required to inhibit 50% of the activity of two cholinesterases were measured. The higher the 50% inhibitory concentration (IC50), the less the compound is neurotoxic since it has a weaker action on the cholinesterase.
(§2) The inhibitory capacity of the compounds on the acetylcholinesterase (AChE) and butyrylcholinesterase (BuChE) biological activity was assessed using the spectrometric method of Ellman (Ellman et al., Biochem. Pharm. 1961, 7, 88-95).
(§3) The acetylthiocholine and butyrylthiocholine iodide, and 5,5-dithiobis (2-nitrobenzoic) acid (DTNB) were purchased from Sigma Aldrich (Steinheim, Germany).
(§4) The BuChE freeze-dried from equine serum (eqBuChE, Sigma Aldrich) was dissolved in 0.1 M phosphate buffer (pH 7.4) to obtain enzyme stock solutions with an enzymatic activity of 2.5 units/mL. The human erythrocyte AChE (hAChE, aqueous buffer solution, ≥500 units/mg of protein (BCA), Sigma Aldrich) was diluted in 20 mM HEPES buffer, pH 8, with 0.1% Triton X-100 to obtain enzymatic solution with an enzymatic activity of 0.25 unit/mL.
(§5) In the procedure, 100 µL of 0.3 mM DTNB dissolved in phosphate buffer, pH 7.4, were added in 96-well plates, followed by 50 µL solution of the test compound and 50 µL enzyme (final 0.05 U). After 5 minutes of pre-incubation at 25° C., the reaction was initiated by injecting 50 µL of 0.1 mM acetyl or butyryl thiocholine iodide solution. The acetyl or butyryl thiocholine hydrolysis was followed by the formation of yellow 5-thio 2-nitrobenzoate anion as the product of the reaction of DTNB with the thiocholine released by the enzymatic hydrolysis of the acetyl or butyryl thiocholine, at a wavelength of 412 nm, using a microplate reader (Synergy 2, Biotek, Colmar, France). The compounds to be tested were dissolved to 5×10^-3 M in analytical grade DMSO. Donepezil or tacrine were used as reference standards. The absorption increase rate at 412 nm was determined 4 minutes after the addition of the acetyl or butyryl thiocholine iodide solution. The tests were carried out with a blank containing all the compounds except the acetyl or butyryl thiocholine in order to take into account non-enzymatic reactions.
(§6) The percentage of inhibition due to the presence of the test compounds was calculated using the following expression: […]
(§7) wherein vi is the rate calculated in the presence of the inhibitor, and v0 is the enzymatic activity.
(§8) IC50 values were graphically determined by plotting the percentage of inhibition as a function of the logarithm of six inhibitor concentrations in the test solution using the GraphPadPrism software (version 6.01, GraphPad Software, La Jolla, Calif., USA). All the experiments were carried out in n=3.

For assay [2], the target named is T2, human erythrocyte AChE (hAChE) (Homo sapiens, UniProt P22303).
T2 construct: The human erythrocyte AChE (hAChE, aqueous buffer solution); purchased Sigma Aldrich; host or cells: human erythrocytes (natural source)
T2 sequence (P22303 32-617 isoform P22303-2 limits assumed): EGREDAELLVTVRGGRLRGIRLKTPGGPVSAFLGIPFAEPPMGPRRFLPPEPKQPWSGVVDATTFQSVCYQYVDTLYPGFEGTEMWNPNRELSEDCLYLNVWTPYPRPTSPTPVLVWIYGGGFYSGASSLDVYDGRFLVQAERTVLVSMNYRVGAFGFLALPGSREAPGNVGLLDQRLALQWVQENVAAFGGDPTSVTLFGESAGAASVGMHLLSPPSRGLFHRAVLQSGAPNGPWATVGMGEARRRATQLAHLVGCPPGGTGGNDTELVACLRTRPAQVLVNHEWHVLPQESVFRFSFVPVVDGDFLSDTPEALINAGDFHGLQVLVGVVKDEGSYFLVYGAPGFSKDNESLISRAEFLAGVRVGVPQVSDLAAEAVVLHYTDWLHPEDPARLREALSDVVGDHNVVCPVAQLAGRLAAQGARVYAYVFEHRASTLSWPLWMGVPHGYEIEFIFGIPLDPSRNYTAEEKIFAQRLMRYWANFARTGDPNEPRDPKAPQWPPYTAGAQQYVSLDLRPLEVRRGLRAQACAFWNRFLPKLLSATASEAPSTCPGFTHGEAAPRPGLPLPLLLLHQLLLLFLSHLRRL
Put plainly: acetylcholinesterase inhibition, Ellman spectrometric method. The assay is classed as biochemical. The procedure:
as §1, §2, §3, §4, §5, §6, §7, §8

For orientation: IC50 means the concentration at which inhibition is half-maximal.

T1 sequence (P81908 whole entry): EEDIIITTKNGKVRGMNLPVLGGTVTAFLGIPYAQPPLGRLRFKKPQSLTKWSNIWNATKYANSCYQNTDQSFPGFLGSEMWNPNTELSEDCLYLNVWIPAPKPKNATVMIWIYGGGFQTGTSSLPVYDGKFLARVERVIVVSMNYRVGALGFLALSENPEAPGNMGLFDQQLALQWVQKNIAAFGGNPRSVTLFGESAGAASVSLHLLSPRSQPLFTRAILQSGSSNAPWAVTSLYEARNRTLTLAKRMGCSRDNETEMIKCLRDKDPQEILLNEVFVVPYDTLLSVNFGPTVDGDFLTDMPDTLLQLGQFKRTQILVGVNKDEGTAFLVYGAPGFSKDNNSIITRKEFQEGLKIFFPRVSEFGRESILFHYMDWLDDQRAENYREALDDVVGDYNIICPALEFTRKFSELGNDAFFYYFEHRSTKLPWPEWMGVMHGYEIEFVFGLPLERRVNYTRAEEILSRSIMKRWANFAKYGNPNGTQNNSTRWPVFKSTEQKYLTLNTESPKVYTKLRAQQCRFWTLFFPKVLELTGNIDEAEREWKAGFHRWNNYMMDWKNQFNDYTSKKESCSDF

For the molecule `O=P(Oc1ccccc1)(Oc1ccccc1)Oc1ccc(OP(=O)(Oc2ccccc2)Oc2ccccc2)c(-c2ccccc2)c1` [Compound 11, phenylhydroquinone bis(diphenylphosphate)], the IC50 is 25.8 µM in assay [1] and 35.5 µM in assay [2].
`CC(C)(C)c1cc(OP(=O)(Oc2ccccc2)Oc2ccccc2)ccc1OP(=O)(Oc1ccccc1)Oc1ccccc1` [Compound 12, tert-butyl hydroquinone bis(diphenylphosphate)]: the IC50 is 104 µM in assay [1] and 23.8 µM in assay [2].
For `CC(C)(C)c1cc(OP(=O)(Oc2ccccc2)Oc2ccccc2)c(C(C)(C)C)cc1OP(=O)(Oc1ccccc1)Oc1ccccc1` [Compound 13, 2,5-di-tert-butyl hydroquinone bis(diphenylphosphate)], in that order: 111 µM and 27.1 µM.
For `O=P(Oc1ccccc1)(Oc1ccccc1)Oc1ccc(OP(=O)(Oc2ccccc2)Oc2ccccc2)c2ccccc12` [Compound 14, 1,4-dihydroxynaphthalene bis(diphenylphosphate)], in that order: 127 µM and 27.4 µM.
For `O=P(Oc1ccccc1)(Oc1ccccc1)Oc1ccc2ccc(OP(=O)(Oc3ccccc3)Oc3ccccc3)cc2c1` [Compound 15, 2,7-dihydroxynaphthalene bis(diphenylphosphate)], in that order: 90.1 µM and 28.8 µM.
With `O=C(c1ccc(OP(=O)(Oc2ccccc2)Oc2ccccc2)cc1)c1ccc(OP(=O)(Oc2ccccc2)Oc2ccccc2)cc1` [Compound 16, 4,4′-dihydroxybenzophenone bis(diphenylphosphate)], the IC50 in assay [1] is 164 µM; in assay [2] it was 39.8 µM.
For `O=P(Oc1ccccc1)(Oc1ccccc1)Oc1ccc(S(=O)(=O)c2ccc(OP(=O)(Oc3ccccc3)Oc3ccccc3)cc2)cc1` [Compound 17, bis(4-dihydroxyphenyl)sulfone bis(diphenylphosphate)] the same measures were 96.4 µM and 30.2 µM.
For `O=P(Oc1ccccc1)(Oc1ccccc1)Oc1ccc(C(c2ccc(OP(=O)(Oc3ccccc3)Oc3ccccc3)cc2)(C(F)(F)F)C(F)(F)F)cc1` [Compound 18], in that order: 141 µM and 34 µM.
With `CC(c1ccccc1)(c1ccc(OP(=O)(Oc2ccccc2)Oc2ccccc2)cc1)c1ccc(OP(=O)(Oc2ccccc2)Oc2ccccc2)cc1` [Compound 19, 4,4′-(α-methylbenzylidene)bisphenol bis(diphenylphosphate)], the results for the IC50 in assay [1] and in assay [2] were 147 µM and 46 µM, respectively.
With `O=P(Oc1ccccc1)(Oc1ccccc1)Oc1ccc(C2(c3ccc(OP(=O)(Oc4ccccc4)Oc4ccccc4)cc3)CCCCC2)cc1` [Compound 20, 1,1-bis-(4-hydroxyphenyl)cyclohexane bis(diphenylphosphate)], the 50% inhibitory concentration (IC50) in assay [1] is 399 µM; in assay [2], 35.5 µM.
For `O=P(Oc1ccccc1)(Oc1ccccc1)Oc1ccc(C2(c3ccc(OP(=O)(Oc4ccccc4)Oc4ccccc4)cc3)c3ccccc3-c3ccccc32)cc1` [Compound 21, 9,9-bis(4-hydroxyphenyl)fluorene bis(diphenylphosphate)], in that order: 106 µM and 29.6 µM.
For `CC(c1ccc(OP(=O)(Oc2ccccc2)Oc2ccccc2)cc1)(c1ccc(OP(=O)(Oc2ccccc2)Oc2ccccc2)cc1)c1ccc(OP(=O)(Oc2ccccc2)Oc2ccccc2)cc1` [Compound 23, 1,1,1-Tris(4-hydroxyphenyl)ethane tris(diphenylphosphate)] the same measures were 70.9 µM and 19.8 µM.
Turning to `CC(C)(C)c1ccc(OP(=O)(Oc2ccc(C(C)(C)C)cc2)Oc2ccc(C(C)(C)C)cc2)cc1` [Compound I2, Tri(p-tert-butylphenyl)phosphate, reference compound], the “inhibition on butyrylcholinesterase / lC50 for eqBuChE, in words” value in assay [1] is “reduced inhibition”.
Regarding `O=P(Oc1ccccc1)(Oc1ccccc1)Oc1cc(OP(=O)(Oc2ccccc2)Oc2ccccc2)c2ccccc2c1` [X, 1,3-dihydroxynaphthalene bis(diphenylphosphate), reference compound], the figures for the 50% inhibitory concentration (IC50) in assay [1] and in assay [2] were 7.21 µM and 26.4 µM, respectively.
For the molecule `O=P(Oc1ccccc1)(Oc1ccccc1)Oc1ccc(OP(=O)(Oc2ccccc2)Oc2ccccc2)c(Cl)c1` [Y, 2-chlorohydroquinone bis(diphenylphosphate), reference compound], the concentration for half-maximal inhibition (IC50) in assay [1] is 1 µM; in assay [2], 41.1 µM.
Consider `CC(=O)c1cc(OP(=O)(Oc2ccccc2)Oc2ccccc2)ccc1OP(=O)(Oc1ccccc1)Oc1ccccc1` [Z, (2,5-dihydroxy)1-acetophenone bis(diphenylphosphate), reference compound], for which the results for the IC50 in assay [1] and in assay [2] were 0.114 µM and 29.8 µM, respectively.
Regarding “dimer diol (C34-36) bis(diphenylphosphate) [Compound 22]”, the “lC50 eqBuChE” value in assay [1] (Table 1, n=3) is 88.3 mg/L. The “lC50 hAChE” value in assay [2] (Table 1, n=3) stood at 15.6 mq/L.

Values taken from patent US20230242830A1 (priority 2020, published 2023).
